For this assay, the system named is HIV-1 strain 92HT599. The assay can be described thus: Antiviral activity against HIV-1 strain 92HT599 in MT2 cells (p24 estimation). In kind it is cell-based. The following applies: HIV-1 92HT599, ~96 hours. As to the method:
Example 77: Evaluation of Compounds Antiviral Activity Against HIV-1 Strain 92HT599 in MT2 Cells
MT2 cells were infected with HIV-1 strain 92HT599 (10 TCID 50/30000 cells). The infected cells were plated at the concentration of 30,000 cells per well in 96 well plate. Test compound was added to the micro plate in defined format with the final concentration of DMSO (vehicle) is not more than 1%. Incubation was carried out in CO2 incubator for ˜96 hours for viral infection. At the end of incubation period an aliquot from each well was taken for p24 estimation. The quantitation of p24 is an index for antiviral activity of the compound. Percent inhibition was calculated with reference to control values (vehicle controls). p24 estimation was carried out using Advance biosciences kit as per the procedure detailed by supplier.

[1] abbreviates: Human immunodeficiency virus 1, 0% serum binding assay, read-out: IC50 0% serum.
Where [2] appears, read: Human immunodeficiency virus 1, 40% serum binding assay, read-out: IC50 40% serum.

The values that follow come from patent US11034718B2, “C-3 novel triterpenone with C-17 reverse amide derivatives as HIV inhibitors” (HETERO LABS LIMITED, priority 2015, dated 2021).

Structures can show the parent of a compound that is named as a salt. Where two headings read alike, the source gives them in different places.

For `CC(C)C1=C2[C@H]3CC[C@@H]4[C@@]5(C)CC[C@H](OC(=O)[C@H]6C[C@@H](C(=O)O)C6(C)C)C(C)(C)[C@@H]5CC[C@@]4(C)[C@]3(C)CC[C@@]2(NC(=O)C(C)(C)NC(=O)[C@@H](N)C(C)C)CC1=O` [Example 36, (1R,3S)-3-((((3aR,5aR,5bR,7aR,9S,11aR,11bR,13aS)-3a-(2-((S)-2-amino-3-methylbutanamido)-2-methylpropanamido)-1-isopropyl-5a,5b,8,8,11a-pentamethyl-2-oxo-3,3a,4,5,5a,5b,6,7,7a,8,9,10,11,11a,11b,12,13,13a-octadecahydro-2H-cyclopenta[a]chrysen-9-yl)oxy)carbonyl)-2,2-dimethylcyclobutane-1-carboxylic acid hydrochloride], the IC50 – broadly, the midpoint of a concentration-inhibition curve – reads like this: under setting [1], under 3 nM; under setting [2], 50 to 200 nM.

Turning to `CC(C)C1=C2[C@H]3CC[C@@H]4[C@@]5(C)CC[C@H](OC(=O)[C@H]6C[C@@H](C(=O)O)C6(C)C)C(C)(C)[C@@H]5CC[C@@]4(C)[C@]3(C)CC[C@@]2(NC(=O)C(C)(C)NC(=O)c2ccc(F)cc2)CC1=O` [Example 22, (1R,3S)-3-((((3aR,5aR,5bR,7aR,9S,11aR,11bR,13aS)-3a-(2-(4-fluorobenzamido)-2-methylpropanamido)-1-isopropyl-5a,5b,8,8,11a-pentamethyl-2-oxo-3,3a, 4,5,5a,5b,6,7,7a,8,9,10,11,11a,11b,12,13,13a-octadecahydro-2H-cyclopenta[a]chrysen-9-yl)oxy)carbonyl)-2,2-dimethylcyclobutane-1-carboxylic acid], the IC50 is under 3 nM under setting [1] and under 50 nM under setting [2].

With `CC(C)C1=C2[C@H]3CC[C@@H]4[C@@]5(C)CC[C@H](OC(=O)[C@H]6C[C@@H](C(=O)O)C6(C)C)C(C)(C)[C@@H]5CC[C@@]4(C)[C@]3(C)CC[C@@]2(NC(=O)C(C)(C)NC(=O)OC(C)(C)C)CC1=O` [Example 75], the IC50 under setting [1] is under 3 nM and the half-maximal inhibitory concentration (IC50) under setting [2] was under 50 nM.

Consider `CC(C)C1=C2[C@H]3CC[C@@H]4[C@@]5(C)CC[C@H](OC(=O)[C@H]6C[C@@H](C(=O)O)C6(C)C)C(C)(C)[C@@H]5CC[C@@]4(C)[C@]3(C)CC[C@@]2(NC(=O)C(C)(C)NC(=O)CN2CCCCC2)CC1=O` [Example 10, (1R,3S)-3-((((3aR,5aR,5bR,7aR,9S,11aR,11bR,13aS)-1-isopropyl-5a,5b,8,8,11a-pentamethyl-3a-(2-methyl-2-(2-(piperidin-1-yl)acetamido)propan amido)-2-oxo-3,3a,4,5,5a,5b,6,7,7a,8,9,10,11,11a,11b,12,13,13a-octadecahydro-2H-cyclopenta[a]chrysen-9-yl)oxy)carbonyl)-2,2-dimethylcyclobutane-1-carboxylic acid], for which the IC50 runs as follows: under setting [1], under 3 nM; under setting [2], under 50 nM.

For `CC(C)C1=C2[C@H]3CC[C@@H]4[C@@]5(C)CC[C@H](OC(=O)[C@H]6C[C@@H](C(=O)O)C6(C)C)C(C)(C)[C@@H]5CC[C@@]4(C)[C@]3(C)CC[C@@]2(NC(=O)C(C)(C)NCCN(C)C)CC1=O` [Example 73, (1R,3S)-3-((((3aR,5aR,5bR,7aR,9S,11aR,11bR,13aS)-3a-(2-((2-(dimethylamino)ethyl)amino)-2-methylpropanamido)-1-isopropyl-5a,5b,8,8,11a-pentamethyl-2-oxo-3,3a,4,5,5a,5b,6,7,7a,8,9,10,11,11a,11b,12,13,13a-octadecahydro-2H-cyclopenta[a]chrysen-9-yl)oxy)carbonyl)-2,2-dimethylcyclobutane-1-carboxylic acid], the IC50 under setting [1] was under 3 nM and the IC50 under setting [2] was under 50 nM.

Take `Cc1cccc(C(=O)NC(C)(C)C(=O)N[C@@]23CC[C@]4(C)[C@H](CC[C@@H]5[C@@]6(C)CC[C@H](OC(=O)[C@H]7C[C@@H](C(=O)O)C7(C)C)C(C)(C)[C@@H]6CC[C@]54C)C2=C(C(C)C)C(=O)C3)n1` [Example 60, (1R,3S)-3-((((3aR,5aR,5bR,7aR,9S,11aR,11bR,13aS)-1-isopropyl-5a,5b,8,8,11a-pentamethyl-3a-(2-methyl-2-(6-methylpicolinamido)propanamido)-2-oxo-3,3a,4,5,5a,5b,6,7,7a,8,9,10,11,11a,11b,12,13,13a-octadecahydro-2H-cyclopenta[a]chrysen-9-yl)oxy)carbonyl)-2,2-dimethylcyclobutane-1-carboxylic acid]: the 50% inhibitory concentration (IC50) reads like this: under setting [1], under 3 nM; under setting [2], under 50 nM.

Turning to `Cc1ccc(C(=O)NC2(C(=O)N[C@@]34CC[C@]5(C)[C@H](CC[C@@H]6[C@@]7(C)CC[C@H](OC(=O)[C@H]8C[C@@H](C(=O)O)C8(C)C)C(C)(C)[C@@H]7CC[C@]65C)C3=C(C(C)C)C(=O)C4)CCCCC2)cc1` [Example 50, (1R,3S)-3-((((3aR,5aR,5bR,7aR,9S,11aR,11bR,13aS)-1-isopropyl-5a,5b,8,8,11a-pentamethyl-3a-(1-(4-methylbenzamido)cyclohexane-1-carboxamido)-2-oxo-3,3a,4,5,5a,5b,6,7,7a,8,9,10,11,11a,11b,12,13,13a-octadecahydro-2H-cyclopenta[a]chrysen 9-yl)oxy)carbonyl)-2,2-dimethylcyclobutane-1-carboxylic acid], the IC50 under setting [1] is under 3 nM and the IC50 under setting [2] is under 50 nM.

As to `CC(C)C1=C2[C@H]3CC[C@@H]4[C@@]5(C)CC[C@H](OC(=O)[C@H]6C[C@@H](C(=O)O)C6(C)C)C(C)(C)[C@@H]5CC[C@@]4(C)[C@]3(C)CC[C@@]2(NC(=O)C(C)(C)NCC2(c3ccc(Cl)cc3)CC2)CC1=O` [Example 69, (1R,3S)-3-((((3aR,5aR,5bR,7aR,9S,11aR,11bR,13aS)-3a-(2-(((1-(4-chlorophenyl)cyclopropyl)methyl)amino)-2-methylpropanamido)-1-isopropyl-5a,5b,8,8,11a-pentamethyl-2-oxo-3,3a,4,5,5a,5b,6,7,7a,8,9,10,11,11a,11b,12,13,13a-octadecahydro-2H-cyclopenta[a]chrysen-9-yl)oxy)carbonyl)-2,2-dimethylcyclobutane-1-carboxylic acid], the IC50 reads like this: under setting [1], over 10 nM; under setting [2], 50 to 200 nM.

Regarding `CC(C)C1=C2[C@H]3CC[C@@H]4[C@@]5(C)CC[C@H](OC(=O)[C@H]6C[C@@H](C(=O)O)C6(C)C)C(C)(C)[C@@H]5CC[C@@]4(C)[C@]3(C)CC[C@@]2(NC(=O)C(C)(C)NC(=O)[C@@H]2CCCN2)CC1=O` [Example 76, (1R,3S)-3-((((3aR,5aR,5bR,7aR,9S,11aR,11bR,13aS)-1-isopropyl-5a,5b,8,8,11a-pentamethyl-3a-(2-methyl-2-((S)-pyrrolidine-2-carboxamido)propanamido)-2-oxo-3,3a,4,5,5a,5b,6,7,7a,8,9,10,11,11a,11b,12,13,13a-octadecahydro-2H-cyclopenta[a]chrysen-9-yl)oxy)carbonyl)-2,2-dimethylcyclobutane-1-carboxylic acid hydrochloride], the IC50 by setting is: under setting [1], under 3 nM; under setting [2], 50 to 200 nM.

Turning to `CC(C)C1=C2[C@H]3CC[C@@H]4[C@@]5(C)CC[C@H](OC(=O)[C@H]6C[C@@H](C(=O)O)C6(C)C)C(C)(C)[C@@H]5CC[C@@]4(C)[C@]3(C)CC[C@@]2(NC(=O)C2(NC(=O)c3ccc(Cl)cc3)CCCCC2)CC1=O` [Example 48, (1R,3S)-3-((((3aR,5aR,5bR,7aR,9S,11aR,11bR,13aS)-3a-(1-(4-chlorobenzamido)cyclohexane-1-carboxamido)-1-isopropyl-5a,5b,8,8,11a-pentamethyl-2-oxo-3,3a,4,5,5a,5b,6,7,7a,8,9,10,11,11a,11b,12,13,13a-octadecahydro-2H-cyclopenta[a]chrysen-9-yl)oxy)carbonyl)-2,2-dimethylcyclobutane-1-carboxylic acid], the IC50 runs as follows: under setting [1], under 3 nM; under setting [2], under 50 nM.

On to `CC(C)C1=C2[C@H]3CC[C@@H]4[C@@]5(C)CC[C@H](OC(=O)[C@H]6C[C@@H](C(=O)O)C6(C)C)C(C)(C)[C@@H]5CC[C@@]4(C)[C@]3(C)CC[C@@]2(NC(=O)C(C)(C)NC(=O)c2ccc(Cl)c(Cl)c2)CC1=O` [Example 4, (1R,3S)-3-((((3aR,5aR,5bR,7aR,9S,11aR,11bR,13aS)-3a-(2-(3,4-dichlorobenzamido)-2-methylpropanamido)-1-isopropyl-5a,5b,8,8,11a-pentamethyl-2-oxo-3,3a,4,5,5a,5b,6,7,7a,8,9,10,11,11a,11b,12,13,13a-octadecahydro-2H-cyclopenta[a]chrysen-9-yl)oxy)carbonyl)-2,2-dimethylcyclobutane-1-carboxylic acid], for which the IC50 by setting is: under setting [1], under 3 nM; under setting [2], under 50 nM.

For the compound `CC(C)C1=C2[C@H]3CC[C@@H]4[C@@]5(C)CC[C@H](OC(=O)[C@H]6C[C@@H](C(=O)O)C6(C)C)C(C)(C)[C@@H]5CC[C@@]4(C)[C@]3(C)CC[C@@]2(NC(=O)C(C)(C)NC(=O)[C@@H]2CCCN2C(=O)OC(C)(C)C)CC1=O` [Example 8], the IC50 under setting [1] is under 3 nM and the IC50 under setting [2] was under 50 nM.

For `CC(C)C1=C2[C@H]3CC[C@@H]4[C@@]5(C)CC[C@H](OC(=O)[C@H]6C[C@@H](C(=O)O)C6(C)C)C(C)(C)[C@@H]5CC[C@@]4(C)[C@]3(C)CC[C@@]2(NC(=O)C(C)(C)NCc2ccc(Cl)cc2)CC1=O` [Example 68], the 50% inhibitory concentration (IC50) by setting is: under setting [1], 3.01 to 10 nM; under setting [2], under 50 nM.
